pIC50: −log10 of the molar value. In brackets after ≈: the same amount, converted by molar mass. Where two headings read alike, the source gives them in different places.
How the values were obtained:
[1] = target: T1, full-length beta-Catenin (Uniprot ID P35222) (Homo sapiens, UniProt P35222); test: Fluorescence polarization IC50 (beta-catenin / 5FAM-TCF4 10-53 competition); format: binding
T1 construct: 10 nM full-length beta-Catenin (Uniprot ID P35222)
T1 sequence (P35222 1-781): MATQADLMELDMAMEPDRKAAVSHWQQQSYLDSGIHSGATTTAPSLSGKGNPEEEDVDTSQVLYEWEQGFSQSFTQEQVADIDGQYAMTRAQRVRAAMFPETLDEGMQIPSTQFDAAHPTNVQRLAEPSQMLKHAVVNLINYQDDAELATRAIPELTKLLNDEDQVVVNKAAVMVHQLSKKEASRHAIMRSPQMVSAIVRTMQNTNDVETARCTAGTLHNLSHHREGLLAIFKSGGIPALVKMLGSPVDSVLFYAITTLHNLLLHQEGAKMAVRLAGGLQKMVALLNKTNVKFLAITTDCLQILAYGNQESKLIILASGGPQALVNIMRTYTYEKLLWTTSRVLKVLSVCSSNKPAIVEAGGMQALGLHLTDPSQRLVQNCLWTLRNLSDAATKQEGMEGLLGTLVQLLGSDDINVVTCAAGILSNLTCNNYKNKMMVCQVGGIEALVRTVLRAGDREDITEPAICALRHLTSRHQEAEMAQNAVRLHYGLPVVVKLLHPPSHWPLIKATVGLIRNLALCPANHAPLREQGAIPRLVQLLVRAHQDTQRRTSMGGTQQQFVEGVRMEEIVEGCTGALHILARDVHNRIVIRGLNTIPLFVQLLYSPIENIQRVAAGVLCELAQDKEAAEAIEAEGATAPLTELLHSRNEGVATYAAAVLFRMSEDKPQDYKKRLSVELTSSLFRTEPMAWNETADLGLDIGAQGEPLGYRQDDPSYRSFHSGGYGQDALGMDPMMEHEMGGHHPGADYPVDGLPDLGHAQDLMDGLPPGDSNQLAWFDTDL

CHI Log D procedure = format: physicochemical; settings: for CHI Log D: pH 7.4; for chromatographic logD: pH 7.4, CHI Log D
Solubility in PBS = format: physicochemical
How it was run: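 Steps: ultracentrifuge the peptide PBS solution, inject the supernatant on HPLC, inject a 50 μM peptide DMSO solution as reference, then calculate solubility as area ratio (PBS/DMSO) × 50 uM.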

[2] = fluorescence polarization, beta-catenin, read-out: FP EC50
[3] = Table E2-1, read-out: beta-Catenin FP IC50
[4] = fluorescence polarization, read-out: beta-Catenin FP IC50

Compound	pIC50 [1, 2]	pIC50 ([1]; read-out: beta-Catenin FP IC50)	CHI Log D (CHI Log D procedure)	Solubility (Solubility in PBS) [µM]	pIC50 [1, 3]	chromatographic logD (CHI Log D procedure)	Solubility (Solubility in PBS; Solubility (uM)) [µM]	pIC50 [1, 4]	pIC50 ([1]; read-out: FP EC50)
CC(=O)N1CCC[C@]12CC=CCCCC1(CCCC=CCCCCCC[C@@](C)(C(=O)N[C@@H](Cc3ccc(O)cc3)C(=O)N[C@@H](Cc3csc4ccccc34)C(=O)N[C@@H](CCC(N)=O)C(N)=O)NC(=O)[C@H](C(C)C)NC(=O)[C@H](Cc3ccccc3)NC(=O)[C@H](C)NC(=O)[C@H](C)NC(=O)[C@H](CC(=O)O)NC(=O)[C@H](CC(=O)O)NC1=O)NC(=O)[C@H](C)NC(=O)[C@H](CC(=O)O)NC2=O (stereo partly drawn) [I-341, Ac-PL3-Asp-Ala-B5-Asp-Asp-Ala-Ala-Phe-Val-S8-Tyr-BztA-Gln-NH2]	–	–	–	–	5.70	1.73	38 (≈ 68.9 µg/mL)	–	–
CC(=O)N1CCC[C@]12CC=CCCCC1(CCCC=CCCCCCC[C@@](C)(C(=O)N[C@@H](Cc3ccccc3)C(=O)N[C@@H](Cc3csc4ccccc34)C(=O)N[C@@H](CCC(N)=O)C(N)=O)NC(=O)[C@H](C)NC(=O)[C@H](Cc3ccccc3C)NC(=O)[C@H](C)NC(=O)[C@H](C)NC(=O)[C@H](CC(=O)O)NC(=O)[C@H](CC(=O)O)NC1=O)NC(=O)[C@H](C)NC(=O)[C@H](CC(=O)O)NC2=O (stereo partly drawn) [I-365, Ac-PL3-Asp-Ala-B5-Asp-Asp-Ala-Ala-2MeF-Ala-S8-Phe-BztA-Gln-NH2]	5.57	–	2.038	48 (≈ 85.6 µg/mL)	5.57	–	–	–	–
CC(=O)N1CCC[C@]12CC=CCCCC1(CCCC=CCCCCCC[C@@](C)(C(=O)N[C@@H](Cc3ccccc3)C(=O)N[C@@H](Cc3csc4ccccc34)C(=O)N[C@H](CCC(N)=O)C(N)=O)NC(=O)[C@H](CCC(N)=O)NC(=O)[C@H](Cc3ccccc3)NC(=O)[C@H](C)NC(=O)[C@H](C)NC(=O)[C@H](CCC(=O)O)NC(=O)[C@H](CC(=O)O)NC1=O)NC(=O)[C@H](C)NC(=O)[C@H](CC(=O)O)NC2=O (stereo partly drawn) [I-494, Ac-PL3-Asp-Ala-B5-Asp-Glu-Ala-Ala-Phe-Gln-S8-Phe-BztA-DGIn-NH2]	–	–	–	–	–	2.05	44 (≈ 81 µg/mL)	7.09	–
COC[C@@H]1NC(=O)[C@H](CC(=O)O)NC(=O)[C@]2(CC=CCCCC3(CCCC=CCCCCCC[C@@](C)(C(=O)N[C@@H](Cc4ccccc4)C(=O)N[C@@H](Cc4csc5ccccc45)C(=O)N[C@@H](CCC(N)=O)C(N)=O)NC(=O)[C@H](C(C)C)NC(=O)[C@H](Cc4ccccc4)NC(=O)[C@H](C)NC(=O)[C@H](C)NC(=O)[C@H](CC(=O)O)NC(=O)[C@H](CC(=O)O)NC3=O)NC1=O)CCCN2C(C)=O (stereo partly drawn) [I-345, Ac-PL3-Asp-S(OMe)-B5-Asp-Asp-Ala-Ala-Phe-Val-S8-Phe-BztA-Gln-NH2]	–	–	–	–	6.87	2.14	49 (≈ 89.6 µg/mL)	–	–
CC(=O)N1CCC[C@]12CC=CCCCC1(CCCC=CCCCCCC[C@@](C)(C(=O)N[C@@H](Cc3ccccc3)C(=O)N[C@@H](Cc3c[nH]c4ccccc34)C(=O)N[C@@H](CCC(N)=O)C(N)=O)NC(=O)[C@H](C(C)C)NC(=O)[C@H](Cc3ccccc3)NC(=O)[C@H](C)NC(=O)[C@H](C)NC(=O)[C@H](Cc3cccnc3)NC(=O)[C@H](CC(=O)O)NC1=O)NC(=O)[C@H](C)NC(=O)[C@H](CC(=O)O)NC2=O (stereo partly drawn) [I-271, Ac-PL3-Asp-Ala-B5-Asp-3PyrA-Ala-Ala-Phe-Val-S8-Phe-Trp-Gln-NH2]	–	–	–	10 (≈ 18.1 µg/mL)	5.30	2.44	–	–	–

The next lines start with the values.

pIC50 [1, 2]	pIC50 ([1]; read-out: beta-Catenin FP IC50)	CHI Log D (CHI Log D procedure)	Solubility (Solubility in PBS) [µM]	pIC50 [1, 3]	chromatographic logD (CHI Log D procedure)	Solubility (Solubility in PBS; Solubility (uM)) [µM]	pIC50 [1, 4]	pIC50 ([1]; read-out: FP EC50)	Compound
5.53	5.53	1.752	30 (≈ 58.9 µg/mL)	–	–	–	–	–	CCN(CC(=O)O)C[C@@H]1NC(=O)[C@H](CC(=O)O)NC(=O)C2(CCCC=CCCCOC(=O)N3CC[C@@](C(=O)N[C@@H](Cc4ccsc4)C(=O)N[C@@H](Cc4csc5ccccc45)C(=O)N[C@@H](CCC(N)=O)C(N)=O)(C3)NC(=O)[C@H]([C@@H](C)O)NC(=O)[C@H](Cc3ccccc3)NC(=O)[C@H](C)NC(=O)[C@H](C)NC1=O)CCCC=CC[C@]1(CCCN1C(C)=O)C(=O)N[C@@H](CC(=O)O)C(=O)N[C@@H](CC(C)(C)C)C(=O)N2 (stereo partly drawn) [I-968, Ac-PL3-Asp-Npg-B5-Asp-EtGA-Ala-Ala-Phe-Thr-PyrS2-3Thi-BztA-Gln-NH2]
–	–	2.903	48 (≈ 92.4 µg/mL)	–	–	–	6.37	6.37	CC[C@H](C)[C@@H]1NC(=O)[C@H](CC(=O)O)NC(=O)[C@]2(CC=CCCCC3(CCCC=CCCCCCC[C@@](C)(C(=O)N[C@@H](Cc4ccccc4)C(=O)N[C@@H](Cc4csc5ccccc45)C(=O)N[C@@H](CCC(N)=O)C(N)=O)NC(=O)[C@H](CCC(N)=O)NC(=O)[C@H](Cc4ccccc4)NC(=O)[C@H](CC(C)C)NC(=O)[C@H](C)NC(=O)[C@H](CCC(=O)O)NC(=O)[C@H](CC(=O)O)NC3=O)NC1=O)CCCN2C(C)=O (stereo partly drawn) [I-659, Ac-PL3-Asp-Ile-B5-Asp-Glu-Ala-Leu-Phe-Gln-S8-Phe-BztA-Gln-NH2]
–	–	2.241	50 (≈ 93.5 µg/mL)	–	–	–	7.36	7.36	CCC[C@@H]1NC(=O)[C@H](CC(=O)O)NC(=O)[C@]2(CC=CCCCC3(CCCC=CCCCCCC[C@@](C)(C(=O)N[C@@H](Cc4ccccc4)C(=O)N[C@@H](Cc4csc5ccccc45)C(=O)N[C@@H](CCC(N)=O)C(N)=O)NC(=O)[C@H](CCC(N)=O)NC(=O)[C@H](Cc4ccccc4)NC(=O)[C@H](C)NC(=O)[C@H](C)NC(=O)[C@H](CCC(=O)O)NC(=O)[C@H](CC(=O)O)NC3=O)NC1=O)CCCN2C(C)=O (stereo partly drawn) [I-523, Ac-PL3-Asp-Nva-B5-Asp-Glu-Ala-Ala-Phe-Gln-S8-Phe-BztA-Gln-NH2]
–	–	2.214	50 (≈ 93.5 µg/mL)	–	–	–	7.12	7.12	CCC[C@@H]1NC(=O)[C@H](CC(=O)O)NC(=O)[C@]2(CC=CCCCC3(CCCC=CCCCCCC[C@@](C)(C(=O)N[C@@H](Cc4ccccc4)C(=O)N[C@@H](Cc4csc5ccccc45)C(=O)N[C@@H](CCC(N)=O)C(N)=O)NC(=O)[C@H](CCC(N)=O)NC(=O)[C@H](Cc4ccccc4)NC(=O)[C@H](C)NC(=O)[C@H](C)NC(=O)[C@H](CCC(=O)O)NC(=O)[C@H](CC(=O)O)NC3=O)NC1=O)CCCN2C(C)=O (stereo partly drawn) [I-522, Ac-PL3-Asp-Nva-B5-Asp-Glu-Ala-Ala-Phe-Gln-S8-Phe-BztA-Gln-NH2]
–	–	2.497	43 (≈ 79.8 µg/mL)	–	–	–	6.91	6.91	CC[C@H](C)[C@@H]1NC(=O)[C@H](CC(=O)O)NC(=O)[C@]2(CC=CCCCC3(CCCC=CCCCCCC[C@@](C)(C(=O)N[C@@H](Cc4ccccc4)C(=O)N[C@@H](Cc4csc5ccccc45)C(=O)N[C@H](C(N)=O)[C@@H](C)O)NC(=O)[C@H](CCC(N)=O)NC(=O)[C@H](Cc4ccccc4)NC(=O)[C@H](C)NC(=O)[C@H](C)NC(=O)[C@H](CCC(=O)O)NC(=O)[C@H](CC(=O)O)NC3=O)NC1=O)CCCN2C(C)=O (stereo partly drawn) [I-641, Ac-PL3-Asp-Ile-B5-Asp-Glu-Ala-Ala-Phe-Gln-S8-Phe-BztA-Thr-NH2]
5.85	5.85	−0.043	46 (≈ 90.9 µg/mL)	–	–	–	–	–	CC(=O)N1CCC[C@]12CC=CCCCC1(CCCC=CCCCOC(=O)N3CC[C@@](C(=O)N[C@@H](Cc4ccsc4)C(=O)N[C@@H](Cc4csc5ccccc45)C(=O)N[C@@H](CO)C(N)=O)(C3)NC(=O)[C@H]([C@@H](C)O)NC(=O)[C@H](Cc3ccccc3)NC(=O)[C@H](C)NC(=O)[C@H](C)NC(=O)[C@H](CN(CC(=O)O)CC(F)(F)F)NC(=O)[C@H](CC(=O)O)NC1=O)NC(=O)[C@H](CC(C)(C)C)NC(=O)[C@H](CC(=O)O)NC2=O (stereo partly drawn) [I-957, Ac-PL3-Asp-Npg-B5-Asp-TfeGA-Ala-Ala-Phe-Thr-PyrS2-3Thi-BztA-Ser-NH2]
–	6.81	–	10 (≈ 19.8 µg/mL)	–	2.49	–	–	–	CC(=O)N1CCC[C@]12CC=CCCCC1(CCCC=CCCCOC(=O)N3CC[C@@](C(=O)N[C@@H](Cc4ccsc4)C(=O)N[C@@H](Cc4csc5ccccc45)C(=O)N[C@@H](Cc4c[nH]cn4)C(N)=O)(C3)NC(=O)[C@H](CC(N)=O)NC(=O)[C@H](Cc3ccccc3)NC(=O)[C@H](C)NC(=O)[C@H](C)NC(=O)[C@H](Cc3ccc(O)cc3)NC(=O)[C@H](CC(=O)O)NC1=O)NC(=O)[C@H](CC(C)(C)C)NC(=O)[C@H](CC(=O)O)NC2=O (stereo partly drawn) [I-843, Ac-PL3-Asp-Npg-B5-Asp-Tyr-Ala-Ala-Phe-Asn-PyrS2-3Thi-BztA-His-NH2]
–	–	2.635	21 (≈ 39.4 µg/mL)	–	–	–	7.48	7.48	CC(=O)N1CCC[C@]12CC=CCCCC1(CCCC=CCCCCCC[C@@](C)(C(=O)N[C@@H](Cc3ccccc3)C(=O)N[C@@H](Cc3csc4ccccc34)C(=O)N[C@@H](Cc3c[nH]cn3)C(N)=O)NC(=O)[C@H](CC(N)=O)NC(=O)[C@H](Cc3ccccc3)NC(=O)[C@H](C)NC(=O)[C@H](C)NC(=O)[C@H](CC(=O)O)NC(=O)[C@H](CC(=O)O)NC1=O)NC(=O)[C@H](CCC(C)C)NC(=O)[C@H](CC(=O)O)NC2=O (stereo partly drawn) [I-584, Ac-PL3-Asp-hLeu-B5-Asp-Asp-Ala-Ala-Phe-Asn-S8-Phe-BztA-His-NH2]

From patent US20240116985A1, “STAPLED PEPTIDES AND METHODS THEREOF” (priority 2020, published 2024)
